Columns and labels:
lipoamide = compound: NC(=O)CCCCC1CCSS1 [lipoamide]; experiment: thermal stability z-score vs DMSO; higher = more thermally stabilized by treatment; settings: HeLa, lipoamide concentration 100 µM
Experimental: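 Cellular thermal proteome profiling in HeLa cells. Cells were treated with 100 µM lipoamide for 1 h, with or without 1 mM arsenate for a further 1 h, then heated to ten temperatures (37-66.3 °C), and soluble protein was quantified by TMT mass spectrometry relative to 0.1% DMSO controls. The thermal stability score (sum of log2 fold changes minus the abundance score) was transformed to a z-score; mean of n = 3 experiments.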

potassium arsenate = compound: O=[As]([O-])(O)O.[K+] [potassium arsenate]; experiment: as above; settings: HeLa; arsenate concentration 1 mM
Experimental: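 Cellular thermal proteome profiling in HeLa cells treated with 1 mM arsenate for 1 h (DMSO pretreatment), heated to ten temperatures (37-66.3 °C). Soluble protein was quantified by TMT mass spectrometry relative to DMSO controls; the thermal stability score was transformed to a z-score; mean of n = 3 experiments.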

[1] = arsenate co-treatment: 1 mM arsenate 1 h
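Further: each temperature applied for 3 min, abundance score taken as mean log2 fold change at the two lowest temperatures, z-score obtained by mean subtraction and division by SD.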

UniProt Q9NTK5, sequence (Q9NTK5 whole entry, looked up): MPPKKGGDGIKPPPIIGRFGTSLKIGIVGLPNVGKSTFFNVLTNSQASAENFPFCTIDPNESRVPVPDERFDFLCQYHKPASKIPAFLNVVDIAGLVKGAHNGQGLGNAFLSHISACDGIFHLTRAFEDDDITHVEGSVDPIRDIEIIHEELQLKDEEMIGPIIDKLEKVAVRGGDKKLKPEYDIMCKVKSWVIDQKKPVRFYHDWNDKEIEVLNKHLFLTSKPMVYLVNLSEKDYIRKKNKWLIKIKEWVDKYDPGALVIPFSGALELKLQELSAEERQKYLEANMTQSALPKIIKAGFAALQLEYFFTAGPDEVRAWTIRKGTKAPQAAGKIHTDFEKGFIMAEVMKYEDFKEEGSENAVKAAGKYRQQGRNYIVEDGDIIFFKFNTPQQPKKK
UniProt O75665, sequence (O75665 whole entry): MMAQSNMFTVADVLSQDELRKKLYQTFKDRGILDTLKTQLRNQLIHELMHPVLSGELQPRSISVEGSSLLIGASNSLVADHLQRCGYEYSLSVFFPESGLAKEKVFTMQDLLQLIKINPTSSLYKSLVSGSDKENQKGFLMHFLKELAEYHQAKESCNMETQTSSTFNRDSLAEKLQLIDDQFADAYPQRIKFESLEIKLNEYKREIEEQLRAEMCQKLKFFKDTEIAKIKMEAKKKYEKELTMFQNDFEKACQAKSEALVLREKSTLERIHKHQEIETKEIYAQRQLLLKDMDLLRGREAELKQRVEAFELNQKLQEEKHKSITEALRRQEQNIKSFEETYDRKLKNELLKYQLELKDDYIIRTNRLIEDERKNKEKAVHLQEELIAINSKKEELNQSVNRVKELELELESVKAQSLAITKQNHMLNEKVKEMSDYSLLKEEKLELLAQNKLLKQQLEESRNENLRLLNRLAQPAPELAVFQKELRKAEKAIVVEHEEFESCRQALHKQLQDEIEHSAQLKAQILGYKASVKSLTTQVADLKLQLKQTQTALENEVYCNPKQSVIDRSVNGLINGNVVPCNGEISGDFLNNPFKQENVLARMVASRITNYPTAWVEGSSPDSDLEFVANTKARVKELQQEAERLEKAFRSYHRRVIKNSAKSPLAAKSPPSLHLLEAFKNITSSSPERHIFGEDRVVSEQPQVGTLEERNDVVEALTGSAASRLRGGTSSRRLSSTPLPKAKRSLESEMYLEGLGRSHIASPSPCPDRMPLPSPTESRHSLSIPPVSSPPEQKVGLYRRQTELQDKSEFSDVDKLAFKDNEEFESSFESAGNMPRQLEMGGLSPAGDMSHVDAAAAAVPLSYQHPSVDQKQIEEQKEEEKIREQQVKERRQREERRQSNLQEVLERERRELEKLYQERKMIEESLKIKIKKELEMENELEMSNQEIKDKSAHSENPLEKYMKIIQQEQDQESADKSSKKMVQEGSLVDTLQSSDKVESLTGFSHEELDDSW
UniProt Q8NFH3, sequence (Q8NFH3 whole entry): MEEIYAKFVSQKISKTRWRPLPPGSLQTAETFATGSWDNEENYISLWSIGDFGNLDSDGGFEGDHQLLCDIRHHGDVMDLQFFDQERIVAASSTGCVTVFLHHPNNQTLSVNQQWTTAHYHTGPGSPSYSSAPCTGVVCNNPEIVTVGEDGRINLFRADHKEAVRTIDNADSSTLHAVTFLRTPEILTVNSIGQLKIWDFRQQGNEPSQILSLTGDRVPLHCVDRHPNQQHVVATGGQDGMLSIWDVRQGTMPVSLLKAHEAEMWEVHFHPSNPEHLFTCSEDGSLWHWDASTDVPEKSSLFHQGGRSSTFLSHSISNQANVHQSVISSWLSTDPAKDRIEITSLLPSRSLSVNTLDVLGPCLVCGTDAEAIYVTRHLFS
UniProt Q9Y6R0, sequence (Q9Y6R0 whole entry): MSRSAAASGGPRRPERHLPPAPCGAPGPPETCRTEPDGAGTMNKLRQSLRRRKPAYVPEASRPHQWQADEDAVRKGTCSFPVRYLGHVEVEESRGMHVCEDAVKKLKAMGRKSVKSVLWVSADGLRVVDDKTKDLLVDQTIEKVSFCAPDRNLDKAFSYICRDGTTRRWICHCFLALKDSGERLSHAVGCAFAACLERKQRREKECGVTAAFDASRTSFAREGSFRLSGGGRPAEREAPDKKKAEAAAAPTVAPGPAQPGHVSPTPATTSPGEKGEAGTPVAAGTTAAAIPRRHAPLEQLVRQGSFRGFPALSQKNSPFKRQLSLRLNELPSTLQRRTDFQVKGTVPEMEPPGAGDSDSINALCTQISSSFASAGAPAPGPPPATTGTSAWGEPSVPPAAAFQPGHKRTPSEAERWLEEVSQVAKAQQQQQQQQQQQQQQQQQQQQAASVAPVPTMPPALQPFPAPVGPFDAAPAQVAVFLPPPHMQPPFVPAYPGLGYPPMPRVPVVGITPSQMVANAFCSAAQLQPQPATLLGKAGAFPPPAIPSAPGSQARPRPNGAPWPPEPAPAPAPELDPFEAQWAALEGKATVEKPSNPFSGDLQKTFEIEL
UniProt Q8N543, sequence (Q8N543 whole entry): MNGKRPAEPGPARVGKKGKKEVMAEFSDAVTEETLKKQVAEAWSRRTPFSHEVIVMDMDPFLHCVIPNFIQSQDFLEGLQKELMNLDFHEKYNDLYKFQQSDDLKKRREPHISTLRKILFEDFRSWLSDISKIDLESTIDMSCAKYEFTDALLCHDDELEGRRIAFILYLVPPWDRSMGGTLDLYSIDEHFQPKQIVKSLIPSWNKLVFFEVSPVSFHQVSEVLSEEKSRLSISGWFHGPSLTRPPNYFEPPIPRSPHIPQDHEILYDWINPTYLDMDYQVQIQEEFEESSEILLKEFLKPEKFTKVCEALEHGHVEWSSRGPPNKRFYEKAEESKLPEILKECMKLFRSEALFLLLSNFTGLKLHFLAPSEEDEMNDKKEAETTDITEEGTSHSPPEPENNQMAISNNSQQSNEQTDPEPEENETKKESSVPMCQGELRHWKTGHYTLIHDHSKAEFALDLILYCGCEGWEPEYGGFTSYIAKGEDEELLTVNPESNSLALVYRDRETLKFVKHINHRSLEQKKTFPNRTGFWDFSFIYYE
UniProt O15294, sequence (O15294 whole entry): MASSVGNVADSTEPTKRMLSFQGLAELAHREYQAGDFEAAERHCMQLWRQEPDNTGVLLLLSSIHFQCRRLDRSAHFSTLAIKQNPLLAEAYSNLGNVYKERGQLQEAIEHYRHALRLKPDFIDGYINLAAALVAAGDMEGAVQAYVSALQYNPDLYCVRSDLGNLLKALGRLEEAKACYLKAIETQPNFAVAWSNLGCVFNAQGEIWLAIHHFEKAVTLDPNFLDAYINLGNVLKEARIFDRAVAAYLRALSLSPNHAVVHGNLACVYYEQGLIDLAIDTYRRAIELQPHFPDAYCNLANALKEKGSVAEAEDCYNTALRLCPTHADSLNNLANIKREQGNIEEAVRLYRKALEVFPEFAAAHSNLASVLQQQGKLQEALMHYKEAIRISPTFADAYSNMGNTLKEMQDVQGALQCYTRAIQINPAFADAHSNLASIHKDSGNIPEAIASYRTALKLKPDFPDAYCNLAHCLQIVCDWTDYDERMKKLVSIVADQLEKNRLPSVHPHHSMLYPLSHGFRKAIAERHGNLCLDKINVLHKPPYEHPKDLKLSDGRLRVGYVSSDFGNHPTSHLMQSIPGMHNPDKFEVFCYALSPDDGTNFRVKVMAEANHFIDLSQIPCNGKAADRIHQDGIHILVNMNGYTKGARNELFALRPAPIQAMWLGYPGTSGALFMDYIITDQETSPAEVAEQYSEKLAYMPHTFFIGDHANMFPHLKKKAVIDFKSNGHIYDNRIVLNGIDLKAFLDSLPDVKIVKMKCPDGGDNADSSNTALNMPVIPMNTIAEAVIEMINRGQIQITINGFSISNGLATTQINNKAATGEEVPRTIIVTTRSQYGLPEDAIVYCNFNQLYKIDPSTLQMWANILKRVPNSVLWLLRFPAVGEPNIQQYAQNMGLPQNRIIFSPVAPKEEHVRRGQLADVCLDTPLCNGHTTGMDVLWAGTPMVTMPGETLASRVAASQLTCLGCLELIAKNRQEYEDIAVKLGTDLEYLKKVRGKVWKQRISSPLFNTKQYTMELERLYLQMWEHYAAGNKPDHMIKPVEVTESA
UniProt Q96DE0, sequence (Q96DE0 whole entry): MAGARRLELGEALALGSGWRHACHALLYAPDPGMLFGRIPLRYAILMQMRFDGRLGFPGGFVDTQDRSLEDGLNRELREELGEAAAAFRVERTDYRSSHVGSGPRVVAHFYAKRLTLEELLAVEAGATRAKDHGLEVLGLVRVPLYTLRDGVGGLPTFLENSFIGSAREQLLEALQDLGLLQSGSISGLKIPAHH
UniProt O43809, sequence (O43809 whole entry): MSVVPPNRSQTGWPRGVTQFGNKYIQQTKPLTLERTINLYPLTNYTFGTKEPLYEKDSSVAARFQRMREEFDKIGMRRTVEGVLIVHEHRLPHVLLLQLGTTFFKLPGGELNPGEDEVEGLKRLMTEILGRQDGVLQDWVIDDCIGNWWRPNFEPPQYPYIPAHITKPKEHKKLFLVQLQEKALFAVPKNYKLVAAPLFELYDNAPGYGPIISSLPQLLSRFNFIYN
UniProt Q5SWX8, sequence (Q5SWX8 whole entry): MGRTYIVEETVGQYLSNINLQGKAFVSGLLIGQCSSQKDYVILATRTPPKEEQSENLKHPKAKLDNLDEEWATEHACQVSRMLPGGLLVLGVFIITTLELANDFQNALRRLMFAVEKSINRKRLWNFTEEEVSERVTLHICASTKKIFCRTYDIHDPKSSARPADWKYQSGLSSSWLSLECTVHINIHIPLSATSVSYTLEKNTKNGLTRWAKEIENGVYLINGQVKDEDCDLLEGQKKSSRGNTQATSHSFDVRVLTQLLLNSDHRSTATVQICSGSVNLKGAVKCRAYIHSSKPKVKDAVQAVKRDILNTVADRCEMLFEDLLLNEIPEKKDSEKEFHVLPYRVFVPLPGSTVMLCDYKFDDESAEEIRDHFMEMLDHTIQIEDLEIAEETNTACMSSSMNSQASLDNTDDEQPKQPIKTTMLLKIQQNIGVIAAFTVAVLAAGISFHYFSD
UniProt P61970, sequence (P61970 whole entry): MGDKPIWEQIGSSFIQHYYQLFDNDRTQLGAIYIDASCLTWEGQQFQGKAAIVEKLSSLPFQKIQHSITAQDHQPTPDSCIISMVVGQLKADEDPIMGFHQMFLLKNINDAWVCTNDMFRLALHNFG

Target | thermal stability z-score (lipoamide; [1]) | thermal stability z-score (lipoamide; arsenate co-treatment: none) | thermal stability z-score (potassium arsenate)
NUDT16 (UniProt Q96DE0) | 0.938 | 0.232 | -0.335
NUDT19 (UniProt A8MXV4) | -0.133 | 0.126 | -0.208
NUDT21 (UniProt O43809) | 1.57 | 0.0301 | -0.633
NUF2 (UniProt Q9BZD4) | -0.884 | -0.901 | 2.02
NUFIP2 (UniProt Q7Z417) | 0.354 | 0.487 | 1.08
NUMA1 (UniProt Q14980) | 0.34 | 0.207 | -1.48
NUMB (UniProt P49757) | -0.402 | 0.201 | -2.09
NUMBL (UniProt Q9Y6R0) | 0.0444 | 0.451 | -1.68
NUP35 (UniProt Q8NFH5) | 0.043 | -0.376 | 1.25
NUP37 (UniProt Q8NFH4) | 0.338 | -0.0489 | 0.82
NUP43 (UniProt Q8NFH3) | 2.43 | 0.779 | 1.58
NUP50 (UniProt Q9UKX7) | 1.4 | 1.06 | 0.502
NUP54 (UniProt Q7Z3B4) | 0.342 | 0.00636 | 0.309
NUP58 (UniProt Q9BVL2) | 2.2 | 0.178 | 0.865
NUP62 (UniProt P37198) | -0.129 | -0.358 | 0.329
NUP85 (UniProt Q9BW27) | 0.16 | 0.113 | 0.613
NUP88 (UniProt Q99567) | -0.607 | -0.513 | 0.549
NUP93 (UniProt Q8N1F7) | -0.614 | -0.482 | 0.232
NUP98 (UniProt P52948) | -0.415 | -0.292 | 0.214
NUP107 (UniProt P57740) | -0.163 | -0.0082 | 0.77
NUP133 (UniProt Q8WUM0) | -0.312 | -0.456 | -0.139
NUP153 (UniProt P49790) | 0.99 | 0.627 | 3.83
NUP155 (UniProt O75694) | -0.814 | -0.769 | 0.275
NUP160 (UniProt Q12769) | 0.198 | 0.123 | 1.01
NUP188 (UniProt Q5SRE5) | -0.451 | -0.512 | 0.426
NUP205 (UniProt Q92621) | -0.769 | -0.572 | 1.05
NUP210 (UniProt Q8TEM1) | -0.954 | -1.03 | 0.685
NUP214 (UniProt P35658) | -0.0103 | -0.132 | 0.815

Target | thermal stability z-score (lipoamide; [1]) | thermal stability z-score (lipoamide; arsenate co-treatment: none) | thermal stability z-score (potassium arsenate)
NUS1 (UniProt Q96E22) | 0.421 | 0.252 | 0.015
NUSAP1 (UniProt Q9BXS6) | 0.43 | 0.187 | 0.758
NUTF2 (UniProt P61970) | 0.312 | 0.256 | -0.609
NVL (UniProt O15381) | -0.0288 | -0.0652 | 0.0113
NXF1 (UniProt Q9UBU9) | 0.0906 | 0.0765 | -0.127
NXN (UniProt Q6DKJ4) | 0.0765 | 0.152 | 0.314
OARD1 (UniProt Q9Y530) | 0.407 | 0.708 | -0.793
OAS1 (UniProt P00973) | -0.156 | 0.0182 | -0.247
OAS3 (UniProt Q9Y6K5) | -0.0852 | 0.257 | -0.07
OASL (UniProt Q15646) | -0.147 | -0.0704 | -0.307
OAT (UniProt P04181) | -0.684 | -0.588 | 3.08
OBSL1 (UniProt O75147) | -0.175 | -0.0603 | -0.307
OCIAD1 (UniProt Q9NX40) | 0.0741 | -0.143 | -0.448
OCIAD2 (UniProt Q56VL3) | 0.194 | 0.205 | 0.549
OCRL (UniProt Q01968) | 0.142 | 0.13 | 0.24
ODC1 (UniProt P11926) | 0.0303 | 0.354 | 0.106
ODF2 (UniProt Q5BJF6) | 0.0591 | 0.0281 | -0.129
ODR4 (UniProt Q5SWX8) | -0.0304 | 0.112 | 0.137
OFD1 (UniProt O75665) | -0.239 | 0.0566 | -0.000259
OGDH (UniProt Q02218) | 0.182 | 0.151 | -0.531
OGFOD1 (UniProt Q8N543) | 0.312 | -0.342 | 1.04
OGFOD3 (UniProt Q6PK18) | 0.0324 | -0.274 | -0.0712
OGFR (UniProt Q9NZT2) | 0.681 | 0.943 | 1.72
OGT (UniProt O15294) | -0.039 | -0.08 | 0.254
OLA1 (UniProt Q9NTK5) | 0.522 | 0.49 | -0.463
OLR1 (UniProt P78380) | -0.828 | -0.797 | 0.938
OMA1 (UniProt Q96E52) | -0.791 | -1.46 | -0.431
